Measurements as given in US7691861B2, “Indolymaleimide derivatives” (Novartis AG, priority 2004, dated 2010).

What was measured:
Human recombinant PKCε = target: T1, Human recombinant PKCε (Homo sapiens, UniProt Q02156); assay: Protein Kinase Cε Assay; format: biochemical; settings: 10 μM 33P-ATP
T1 construct: purchased Oxford Biomedical Research
T1 sequence (Q02156 1-737): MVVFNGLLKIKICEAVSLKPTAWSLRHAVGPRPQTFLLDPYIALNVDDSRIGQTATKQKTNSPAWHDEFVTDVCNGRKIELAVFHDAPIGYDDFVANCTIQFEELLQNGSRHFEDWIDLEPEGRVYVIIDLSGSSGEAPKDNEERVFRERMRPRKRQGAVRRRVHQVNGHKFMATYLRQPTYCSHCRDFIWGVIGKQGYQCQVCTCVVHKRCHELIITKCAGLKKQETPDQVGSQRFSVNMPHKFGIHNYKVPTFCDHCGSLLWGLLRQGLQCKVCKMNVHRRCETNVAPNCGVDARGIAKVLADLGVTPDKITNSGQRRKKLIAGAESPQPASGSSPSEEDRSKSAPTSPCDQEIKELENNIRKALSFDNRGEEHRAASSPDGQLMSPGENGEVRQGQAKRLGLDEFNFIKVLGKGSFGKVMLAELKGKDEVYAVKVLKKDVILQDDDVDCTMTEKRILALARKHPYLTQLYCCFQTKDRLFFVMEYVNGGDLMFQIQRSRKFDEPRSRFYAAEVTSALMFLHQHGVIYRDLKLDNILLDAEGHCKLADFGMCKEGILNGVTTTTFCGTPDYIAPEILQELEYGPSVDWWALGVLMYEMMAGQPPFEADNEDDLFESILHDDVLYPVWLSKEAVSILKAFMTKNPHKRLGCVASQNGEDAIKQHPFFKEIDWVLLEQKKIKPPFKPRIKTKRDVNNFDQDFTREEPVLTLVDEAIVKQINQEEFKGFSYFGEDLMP
Experimental: (§1) The compounds of the invention are tested for their activity on different PKC isoforms according to the following method. Assay is performed in a white with clear bottom 384-well microtiterplate with non-binding surface. The reaction mixture (25 μl) contains 1.5 μM of a tridecapeptide acceptor substrate that mimics the pseudo substrate sequence of PKC α with the Ala→Ser replacement, 10 μM ^33P-ATP, 10 mM Mg(NO3)2, 0.2 mM CaCl2, […] at a protein concentration varying from 25 to 400 ng/ml (depending on the isotype used), lipid vesicles (containing 30 mol % phosphatidylserine, 5 mol % DAG and 65 mol % phosphatidylcholine) at a final lipid concentration of 0.5 mM, in 20 mM Tris-HCl buffer pH 7.4+0.1% BSA. Incubation is performed for 60 min at room temperature.
Human recombinant PKCε is obtained from Oxford Biomedical Research and is used under the assay conditions as described under Section A.1 above.

Human recombinant PKCθ = Human recombinant PKCθ (Homo sapiens, UniProt Q04759); assay: Protein Kinase Cθ Assay; format: biochemical; settings: 10 μM 33P-ATP
Experimental: as §1
Human recombinant PKCθ is used under the assay conditions as described above.

Human recombinant PKCη = target: T2, Human recombinant PKCη (Homo sapiens, UniProt P24723); assay: Protein Kinase Cη Assay; format: biochemical; settings: 10 μM 33P-ATP
T2 construct: purchased PanVera
Experimental: as §1
Human recombinant PKCη is obtained from PanVera and is used under the assay conditions as described under Section A.1 above.

Human recombinant PKCδ = target: T3, Human recombinant PKCδ (Homo sapiens, UniProt Q05655); assay: Protein Kinase Cδ Assay; format: biochemical; settings: 10 μM 33P-ATP
T3 construct: purchased Oxford Biomedical Research
Experimental: as §1
Human recombinant PKCδ is obtained from Oxford Biomedical Research and is used under the assay conditions as described under Section A.1 above.

[1] = test system: Jurkat cells transfected with a human interleukin-2 promoter/reporter gene construct; assay: CD28 Costimulation Assay; format: cell-based; settings: IL-2 promoter luciferase reporter, 5.5 hours, read-out: IC50, inhibition of anti-T cell receptor/anti-CD28 and PMA/ionomycin stimulated Jurkat cells
Experimental: The assay is performed with Jurkat cells transfected with a human interleukin-2 promoter/reporter gene construct as described by Baumann G et al. in Transplant. Proc. 1992; 24:43-8, the β-galactosidase reporter gene being replaced by the luciferase gene (de Wet J., et al., Mol. Cell. Biol. 1987, 7(2), 725-737). Cells are stimulated by solid phase-coupled antibodies or phorbol myristate acetate (PMA) and the Ca^++ ionophore ionomycin as follows. For antibody-mediated stimulation Microlite TM1 microtiter plates (Dynatech) are coated with 3 μg/ml goat anti-mouse IgG Fc antibodies (Jackson) in 55 μl phosphate-buffered saline (PBS) per well for three hours at RT. Plates are blocked after removing the antibodies by incubation with 2% bovine serum albumin (BSA) in PBS (300 μl per well) for 2 hours at RT. […] After incubation for 5.5 hours at 37° C. in 5% CO2, the level of luciferase is determined by bioluminescence measurement. […] Luciferase activity is assessed with a bioluminescence reader (Labsystem, Helsinki, Finland) after automatic addition of 50 μl per well luciferase reaction buffer containing 20 mM Tricine, 1.07 mM (MgCO3)4Mg(OH)2×5H2O, 2.67 mM MgSO4, 0.1 mM EDTA, 33.3 mM DTT, 270 μM coenzyme A, 470 μM luciferin (Chemie Brunschwig AG), 530 μM ATP, pH 7.8. […] The inhibition obtained in the presence of a test compound is calculated as percent inhibition of the high control.

[2] = test system: spleen cells from CBA and BALB/c mice; assay: Allogeneic Mixed Lymphocyte Reaction (MLR); format: cell-based; settings: CBA and BALB/c mouse spleen cells, 3H-thymidine incorporation after four days, read-out: IC50, inhibition of proliferation in two-way MLR
Experimental: Briefly, spleen cells from CBA and BALB/c mice (1.6×10^5 cells from each strain per well in flat bottom tissue culture microtiter plates, 3.2×10^5 in total) are incubated in RPMI medium containing 10% FCS, 100 U/ml penicillin, 100 μg/ml streptomycin (Gibco BRL, Basel, Switzerland), 50 μM 2-mercaptoethanol (Fluka, Buchs, Switzerland) and serially diluted compounds. Seven three-fold dilution steps in duplicates per test compound are performed. After four days of incubation 1 μCi ^3H-thymidine is added. Cells are harvested after an additional five-hour incubation period, and incorporated ^3H-thymidine is determined according to standard procedures. Background values (low control) of the MLR are the proliferation of BALB/c cells alone. Low controls are subtracted from all values. High controls without any sample are taken as 100% proliferation.

Human recombinant PKCα = target: T4, Human recombinant PKCα (Homo sapiens, UniProt P17252); assay: Protein Kinase Cα Assay; format: biochemical; settings: 10 μM 33P-ATP
T4 construct: purchased Oxford Biomedical Research
Experimental: as §1
Human recombinant PKCα is obtained from Oxford Biomedical Research and is used under the assay conditions as described under Section A.1 above.

Human recombinant PKCβ1 = target: T5, Human recombinant PKCβ1 (Homo sapiens, UniProt P05771); assay: Protein Kinase Cβ1 Assay; format: biochemical; settings: human recombinant PKCβ1, 10 μM 33P-ATP
T5 construct: purchased Oxford Biomedical Research
Experimental: as §1
Human recombinant PKCβ1 is obtained from Oxford Biomedical Research and is used under the assay conditions as described under Section A.1 above.

T2 sequence (P24723 whole entry): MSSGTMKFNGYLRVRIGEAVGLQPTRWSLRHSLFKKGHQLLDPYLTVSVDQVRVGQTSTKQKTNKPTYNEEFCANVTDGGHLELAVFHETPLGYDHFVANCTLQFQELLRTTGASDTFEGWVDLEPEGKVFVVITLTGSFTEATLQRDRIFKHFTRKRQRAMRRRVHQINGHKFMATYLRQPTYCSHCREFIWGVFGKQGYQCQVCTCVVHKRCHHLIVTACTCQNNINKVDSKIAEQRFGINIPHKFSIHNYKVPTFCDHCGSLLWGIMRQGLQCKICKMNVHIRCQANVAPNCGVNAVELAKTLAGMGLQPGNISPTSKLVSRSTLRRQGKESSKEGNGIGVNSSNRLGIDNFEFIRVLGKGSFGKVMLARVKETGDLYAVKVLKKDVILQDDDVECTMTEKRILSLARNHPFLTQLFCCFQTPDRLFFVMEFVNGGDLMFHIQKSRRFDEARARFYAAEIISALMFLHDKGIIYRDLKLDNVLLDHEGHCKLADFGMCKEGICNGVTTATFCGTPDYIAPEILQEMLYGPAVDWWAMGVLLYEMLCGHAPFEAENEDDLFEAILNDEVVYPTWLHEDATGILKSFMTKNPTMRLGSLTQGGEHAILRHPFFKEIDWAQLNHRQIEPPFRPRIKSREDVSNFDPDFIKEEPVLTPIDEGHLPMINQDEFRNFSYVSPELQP
Chain of Human recombinant PKCθ (Q04759 whole entry): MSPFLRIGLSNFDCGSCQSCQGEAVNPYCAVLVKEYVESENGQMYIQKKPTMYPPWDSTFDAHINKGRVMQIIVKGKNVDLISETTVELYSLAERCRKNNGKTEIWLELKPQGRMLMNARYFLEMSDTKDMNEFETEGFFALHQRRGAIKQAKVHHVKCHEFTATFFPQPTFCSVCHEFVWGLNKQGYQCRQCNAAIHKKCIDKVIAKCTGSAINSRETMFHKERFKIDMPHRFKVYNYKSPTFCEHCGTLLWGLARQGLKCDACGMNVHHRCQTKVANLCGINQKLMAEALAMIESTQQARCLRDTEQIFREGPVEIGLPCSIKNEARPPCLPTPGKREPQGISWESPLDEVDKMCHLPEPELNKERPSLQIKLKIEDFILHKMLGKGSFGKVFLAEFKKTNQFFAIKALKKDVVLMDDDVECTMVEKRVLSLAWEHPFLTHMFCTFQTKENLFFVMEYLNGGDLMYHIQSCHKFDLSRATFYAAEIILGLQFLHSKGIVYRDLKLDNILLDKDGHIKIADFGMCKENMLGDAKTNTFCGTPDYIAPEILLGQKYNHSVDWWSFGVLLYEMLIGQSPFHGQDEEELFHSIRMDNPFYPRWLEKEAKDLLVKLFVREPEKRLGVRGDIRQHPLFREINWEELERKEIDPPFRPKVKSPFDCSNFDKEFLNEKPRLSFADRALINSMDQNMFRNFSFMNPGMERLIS
T5 sequence (P05771 whole entry): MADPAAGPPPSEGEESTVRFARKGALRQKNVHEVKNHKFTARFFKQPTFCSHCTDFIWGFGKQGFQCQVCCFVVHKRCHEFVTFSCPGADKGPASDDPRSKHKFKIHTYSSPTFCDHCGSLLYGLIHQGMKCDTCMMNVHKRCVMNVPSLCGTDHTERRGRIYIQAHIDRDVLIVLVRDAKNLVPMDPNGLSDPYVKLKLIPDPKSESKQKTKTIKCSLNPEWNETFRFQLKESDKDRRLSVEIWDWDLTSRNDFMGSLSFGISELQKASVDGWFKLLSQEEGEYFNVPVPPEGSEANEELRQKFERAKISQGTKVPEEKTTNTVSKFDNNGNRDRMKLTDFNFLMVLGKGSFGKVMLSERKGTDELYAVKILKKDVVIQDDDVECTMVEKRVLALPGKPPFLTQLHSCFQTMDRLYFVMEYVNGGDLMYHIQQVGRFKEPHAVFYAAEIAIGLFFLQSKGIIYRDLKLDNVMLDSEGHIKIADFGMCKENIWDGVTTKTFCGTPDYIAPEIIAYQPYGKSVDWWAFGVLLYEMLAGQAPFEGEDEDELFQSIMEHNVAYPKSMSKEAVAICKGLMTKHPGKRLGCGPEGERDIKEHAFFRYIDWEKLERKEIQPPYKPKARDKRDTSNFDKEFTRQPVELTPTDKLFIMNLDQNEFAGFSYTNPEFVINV
T3 sequence (Q05655 whole entry): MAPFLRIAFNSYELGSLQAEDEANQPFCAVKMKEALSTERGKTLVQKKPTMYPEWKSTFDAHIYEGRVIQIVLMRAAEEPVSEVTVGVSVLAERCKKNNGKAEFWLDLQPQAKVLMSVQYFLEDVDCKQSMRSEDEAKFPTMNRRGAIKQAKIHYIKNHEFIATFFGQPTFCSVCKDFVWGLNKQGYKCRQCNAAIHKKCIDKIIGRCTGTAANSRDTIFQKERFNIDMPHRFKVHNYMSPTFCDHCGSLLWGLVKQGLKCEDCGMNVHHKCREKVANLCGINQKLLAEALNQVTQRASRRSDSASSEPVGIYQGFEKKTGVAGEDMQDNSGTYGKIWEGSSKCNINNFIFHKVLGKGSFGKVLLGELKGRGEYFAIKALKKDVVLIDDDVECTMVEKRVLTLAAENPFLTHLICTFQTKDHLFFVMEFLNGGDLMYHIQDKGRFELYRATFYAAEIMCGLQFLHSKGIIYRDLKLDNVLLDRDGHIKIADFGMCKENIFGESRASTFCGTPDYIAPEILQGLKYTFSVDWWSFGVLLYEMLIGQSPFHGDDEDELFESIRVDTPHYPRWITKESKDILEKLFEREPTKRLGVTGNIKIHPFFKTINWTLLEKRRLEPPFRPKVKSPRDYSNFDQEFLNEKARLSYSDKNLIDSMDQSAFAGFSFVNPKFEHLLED

IC50 (Human recombinant PKCε)	IC50 (Human recombinant PKCθ)	IC50 (Human recombinant PKCη)	IC50 (Human recombinant PKCδ)	IC50 [1]	IC50 (Human recombinant PKCα)	IC50 (Human recombinant PKCβ1)	Structure (SMILES)	IC50 [2]
17.6 nM	19.2 nM	–	–	–	–	–	CN(C)Cc1ccc2c(C3=C(c4cn(C)c5ccccc45)C(=O)NC3=O)c(Cl)ccc2c1 [example 1, 3-(2-Chloro-6-dimethylaminomethyl-naphthalen-1-yl)-4-(1-methyl-1H-indol-3-yl)-pyrrole-2,5-dione]	–
–	–	53.9 nM	–	–	–	–	Cc1cccc2c(C3=C(c4cccc5cc(CN)ccc45)C(=O)NC3=O)c[nH]c12 [example 3]	–
–	–	7.2 nM	9.4 nM	–	–	–	CN(C)Cc1ccc2c(C3=C(c4c[nH]c5ccccc45)C(=O)NC3=O)c(Cl)ccc2c1 [example 4]	–
–	–	–	4.5 nM	11.5 nM	0.9 nM	2.3 nM	Cc1cccc2c(C3=C(c4c(Cl)ccc5cc(CN(C)C)ccc45)C(=O)NC3=O)c[nH]c12 [example 5]	183 nM
2.3 nM	–	–	–	–	1.1 nM	–	CNCc1ccc2c(C3=C(c4c[nH]c5ccccc45)C(=O)NC3=O)c(Cl)ccc2c1 [example 6]	–
–	6.4 nM	–	–	27.5 nM	–	2.8 nM	CNCc1ccc2c(C3=C(c4c[nH]c5c(C)cccc45)C(=O)NC3=O)c(Cl)ccc2c1 [example 7]	528 nM
